In patent US20050266014A1, “Tumor antigen based on products of the tumor suppressor gene WT1” (HARUO SUGIYAMA, priority 1998, published 2005):
Read-outs that look alike come from different tables or passages of the source. No end group written: not given here.

How the values were obtained:
D^b of MHC class I = target: T1, D^b of MHC class I (Mus musculus, UniProt P01899); experiment: Binding of peptides to D^b on RMA-S cells (fluorescent antibody staining, binding dissociation constant)
T1 construct: the cell line (RMA-S) that expresses K^b and D^b molecules; endogenous in cells; host or cells: RMA-S cells
T1 sequence (P01899 25-362): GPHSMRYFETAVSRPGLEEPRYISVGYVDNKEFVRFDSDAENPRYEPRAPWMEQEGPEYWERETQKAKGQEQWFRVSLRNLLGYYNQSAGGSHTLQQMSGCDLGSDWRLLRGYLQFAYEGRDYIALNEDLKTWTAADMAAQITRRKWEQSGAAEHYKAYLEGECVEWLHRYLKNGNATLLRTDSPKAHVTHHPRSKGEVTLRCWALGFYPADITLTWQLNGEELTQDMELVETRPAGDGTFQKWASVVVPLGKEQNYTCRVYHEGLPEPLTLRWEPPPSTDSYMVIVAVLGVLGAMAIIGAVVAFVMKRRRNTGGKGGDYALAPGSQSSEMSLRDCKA
T1 sequence (P01887 21-119 partner): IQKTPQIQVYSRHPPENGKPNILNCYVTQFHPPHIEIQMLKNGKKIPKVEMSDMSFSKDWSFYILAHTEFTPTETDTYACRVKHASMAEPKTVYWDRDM
Experimental: (§1) Thus, RMA-S was cultured at 26° C. to effect high expression of MHC class I, and the cultured cells were incubated with the solutions of the test peptides at 37° C. for 1 hour. […] Then using fluorescently labeled monoclonal antibody that recognizes MHC class I (K^b, D^b), RMA-S cells were stained.

K^b of MHC class I = target: T2, K^b of MHC class I (Mus musculus, UniProt P01901); experiment: Binding of peptides to K^b on RMA-S cells (fluorescent antibody staining, binding dissociation constant); details: peptide 37° C. 1 hour
T2 construct: the cell line (RMA-S) that expresses K^b and D^b molecules; endogenous in cells; host or cells: RMA-S cells
T2 sequence (P01901 22-369): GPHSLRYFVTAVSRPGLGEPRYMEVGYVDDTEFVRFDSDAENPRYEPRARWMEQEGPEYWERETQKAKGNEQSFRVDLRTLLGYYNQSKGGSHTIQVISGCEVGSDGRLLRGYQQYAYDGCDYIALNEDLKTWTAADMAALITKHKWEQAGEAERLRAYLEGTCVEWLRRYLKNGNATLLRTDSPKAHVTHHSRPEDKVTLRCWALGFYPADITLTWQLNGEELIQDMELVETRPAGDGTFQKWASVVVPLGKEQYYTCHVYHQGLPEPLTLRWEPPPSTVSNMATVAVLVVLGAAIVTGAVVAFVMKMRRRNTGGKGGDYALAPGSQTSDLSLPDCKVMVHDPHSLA
T2 sequence (P01887 21-119 partner): T1 sequence (P01887 21-119 partner)
Experimental: as §1, with “stained. Finally, the binding dissociation constant was calculated from the average amount of fluorescence per cell (Immunol. Lett., 47: 1, 1995).” for “stained.”

HLA-A* 0201 = target: T3, HLA-A* 0201 (Homo sapiens, UniProt P04439, D140Y/D185E/D98H/E176V/E277Q/G131W/G231S/I119V/I121R/I166T/I218V/L300P/L318F/N151K/N90K/P208A/P217A/Q86G/Q94H/R138H/R169H/T345S); experiment: Binding of peptides to HLA-A* 0201 on T2 cells (FACS, binding dissociation constant); details: 37° C. 1 hour
T3 construct: T2 cells having the empty HLA-A* 0201 molecules; endogenous in cells; host or cells: T2 cells

induced CTL = experiment: FACS analysis of surface markers of induced CTL, Example 3; format: cell-based; details: human CTL, FIGS. 5 to 10
Experimental: One week later, T2 cells that were irradiated after incubating for 1 hour with the peptide (20 μg/ml) were added to the above culture system for restimulation. From the following day, human IL-2 (final concentration 100 JRU/ml) was added to the culture.
Subsequently, after repeating, for five times, stimulation with the T2 cells that were irradiated after being pulsed with the peptide, a killing assay was performed using, as the target, the T2 cells pulsed with the peptide or the T2 cells not pulsed with the peptide. The surface markers of the induced CTL were subjected to FACS analysis.

[1] = target: T4, K^b of mouse MHC class I, on RMA-S cells (mouse, UniProt P01887 21-119; P01901 22-369); experiment: MHC stabilisation on RMA-S cells, staining with fluorescent anti-MHC class I antibody, flow cytometry
T4 construct: whole, on cells; Empty MHC class I on RMA-S cells cultured at 26 C; also called H-2K^b
T4 sequence (MHC heavy, looked up): T2 sequence (P01901 22-369)
T4 sequence (b2m, looked up): T1 sequence (P01887 21-119 partner)
Experimental: as §1, with “stained. Finally, the binding dissociation constant was calculated from the average amount of fluorescence per cell (Immunol. Lett., 47: 1, 1995).” for “stained.”

[2] = target: T5, D^b of mouse MHC class I, on RMA-S cells (mouse, UniProt P01887 21-119; P01899 25-362); experiment: as above
T5 construct: whole, on cells; Empty MHC class I on RMA-S cells cultured at 26 C; also called H-2D^b
T5 sequence (MHC heavy, looked up): T1 sequence (P01899 25-362)
T5 sequence (b2m, looked up): T1 sequence (P01887 21-119 partner)
Experimental: as §1, with “stained. Finally, the binding dissociation constant was calculated from the average amount of fluorescence per cell (Immunol. Lett., 47: 1, 1995).” for “stained.”

HLA-A* 0201, on T2 cells = target: T6, HLA-A* 0201, on T2 cells (human); experiment: peptide binding to empty HLA-A*0201 on T2 cells, staining with fluorescent anti-HLA-A2.1 antibody, FACS
T6 construct: whole, on cells; Empty HLA-A*0201 molecules on T2 cells; also called HLA-A2.1; A* 0201 of human HLA
Experimental: The above peptides and T2 cells having the empty HLA-A* 0201 molecules (J. Immunol., 150: 1763, 1993; Blood, 88: 2450, 1996) were incubated at 37° C. for 1 hour, and then the T2 cells were stained with fluorescently labeled monoclonal antibody that recognizes HLA-A2.1 to calculate the binding dissociation constant based on the average amount of fluorescence per cell in the FACS analysis.

[3] = RMA-S cells, peptide 37° C. 1 hour, read-out: binding dissociation constant (Kd value) with D^b (converted)

CSCC[C@H](NC(=O)[C@@H](N)CCCNC(=N)N)C(=O)N[C@@H](Cc1ccccc1)C(=O)N1CCC[C@H]1C(=O)N[C@@H](CC(N)=O)C(=O)N[C@@H](C)C(=O)N1CCC[C@H]1C(=O)N[C@@H](Cc1ccc(O)cc1)C(=O)N[C@@H](CC(C)C)C(=O)O [D^b 126] showed a Kd (D^b of MHC class I) of 521 nM.

CMTWNQMNL [D^b 235] gave a Kd (D^b of MHC class I; [3]) of 715 nM.

Molecule CNKRYFKL [K^b 330] has a Kd (K^b of MHC class I) of 1730 nM.

In the case of GASAYGSL [K^b 45], the Kd (K^b of MHC class I) is reported as 26400 nM.

For SLGEQQYSV [WH 187], the Kd (HLA-A* 0201) was 7610 nM and the “surface markers of induced CTL (CD4, CD8)” value (induced CTL) was “The CD4-positive cells and the CD8-positive cells were almost equal in the number”.

YSSDNLYQM [D^b 221] gave a Kd (D^b of MHC class I; [3]) of 1760 nM.

In the case of GASAYGSL [K^b 45 peptide], the “log of binding dissociation constant (Kd)” value (“log” below) [1] is reported as -4.58 log.

In the case of CNKRYFKL [K^b 330 peptide], the “log” value [1] is reported as -5.76 log.

B1: D^b 126 peptide (peptide)
peptide: RMFPNAPYL
notes: It was tested on both H-2D^b and HLA-A*0201
With B1 the “log” value [2] was -6.28 log.

In the case of YSSDNLYQM [D^b 221 peptide], the “log” value [2] is reported as -5.75 log.

For CMTWNQMNL [D^b 235 peptide], the “log” value [2] was -6.15 log.

SLGEQQYSV [WH 187 peptide] showed a Kd (HLA-A* 0201, on T2 cells) of 7610 nM.
